Experimental data from PubChem BioAssay (NCI).
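Each compound was tested at five concentrations against cells in 96-well plates for 48 hours. TGI: concentration producing complete growth inhibition.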

Experiments:
Experiment in all cases: DTP human tumour cell line panel, 48 h
786-0 renal = test system: 786-0 renal
COLO 205 colon = test system: COLO 205 colon
HCT-116 colon = test system: HCT-116 colon
HT29 colon = test system: HT29 colon
IGROV1 ovarian = test system: IGROV1 ovarian
KM12 colon = test system: KM12 colon
MOLT-4 leukemia = test system: MOLT-4 leukemia
SK-MEL-28 melanoma = test system: SK-MEL-28 melanoma
SK-MEL-5 melanoma = test system: SK-MEL-5 melanoma
SR leukemia = test system: SR leukemia

Row | Compound | TGI (786-0 renal) [µM] | TGI (COLO 205 colon) [µM] | TGI (HCT-116 colon) [µM] | TGI (HT29 colon) [µM] | TGI (IGROV1 ovarian) [µM] | TGI (KM12 colon) [µM] | TGI (MOLT-4 leukemia) [µM] | TGI (SK-MEL-28 melanoma) [µM] | TGI (SK-MEL-5 melanoma) [µM] | TGI (SR leukemia) [µM]
1 | CC(C)(C)c1cc(OCc2nn3c(Cc4ccccc4)nnc3s2)c(Cl)cc1OCc1nn2c(Cc3ccccc3)nnc2s1 | > 100 | > 100 | > 100 | > 100 | > 100 | > 100 | > 100 | > 100 | 26.6 | > 100
2 | CC(=O)Oc1c2c(c3n(c1=O)CCCC3)C(=O)N(c1ccccc1)C2=O | > 100 | > 100 | > 100 | > 100 | > 100 | > 100 | > 100 | > 100 | > 100 | > 100
3 | O=C1CC(c2ccccc2)=Nc2ccccc2N1 | > 100 | > 100 | > 100 | > 100 | > 100 | > 100 | > 100 | > 100 | > 100 | > 100
4 | C=CCN(CCNS(=O)(=O)c1ccc(C)cc1)S(=O)(=O)c1ccc(C)cc1 | > 100 | > 60.5 | > 100 | > 100 | > 100 | > 100 | > 84.5 | > 100 | 12.1 | > 100
5 | Cc1n[nH]c(=O)n1/N=C\c1ccccc1 | > 100 | > 100 | > 100 | > 100 | > 100 | > 100 | > 100 | > 100 | > 100 | > 100
6 | COc1cc2c3c(n(C)c(=O)c2cc1OC)-c1cc2c(cc1/C3=C\CCCI)OCO2 | > 100 | > 100 | > 100 | > 100 | > 46.7 | > 100 | > 36.3 | > 100 | > 100 | 23.2
7 | O=c1ccn(C2OC(CO)C(O)C2F)c(=O)n1Cc1ccccc1 (stereo not given) | > 100 | > 100 | > 100 | > 100 | > 100 | > 100 | > 100 | > 100 | > 100 | > 100
8 | Cc1cc(S(=O)(=O)Nc2nnc3cnc4ccccc4n23)c(S)cc1Cl | > 100 | > 100 | > 100 | > 100 | > 100 | > 100 | > 100 | > 100 | > 85.9 | > 100
9 | Cc1cc(=O)n2nc(CCl)sc2n1 | 37 | 33.5 | 24.9 | 30.5 | 37 | 27.4 | 36.3 | 28.6 | 23 | 87
10 | CCOC(=O)c1nc2ccc(C(F)(F)F)cc2nc1Nc1ccc(Cl)c(Cl)c1 | > 100 | > 100 | > 100 | > 100 | > 100 | > 100 | > 100 | > 100 | > 100 | > 100
11 | Clc1cccc(NN=Nc2ccc(-c3nc4ccccc4s3)cc2)c1 | 51.4 | > 100 | > 100 | > 100 | 54.5 | > 100 | 40.6 | > 100 | 74.9 | 43
12 | Cc1sc2c(c1C)/C(=N\O)c1cccn1-2 | 52.3 | > 100 | > 100 | > 100 | > 100 | > 100 | > 100 | > 100 | > 100 | > 100
13 | CCCCCCCCCCCCCCC(O)C[N+](C)(CCO)CCO (stereo not given) | 4.78 | 3.19 | 23.8 | 12.1 | 3.14 | 4.23 | 9.13 | 22.4 | 16.9 | 10.1
14 | O=c1[nH]cc(Cl)c(=O)[nH]1 | > 100 | > 100 | > 100 | > 100 | > 100 | > 100 | > 100 | > 100 | > 100 | > 100
15 | Cc1c(N=Nc2ccccc2)c(C)n(C2OC(CO)C(O)C(O)C2O)c(=S)c1C#N (stereo not given) | > 100 | > 100 | 46.2 | > 100 | > 100 | > 100 | 70 | > 100 | 25 | 87.7
16 | O=C(O)c1ccc(C2=Cc3cc(Cl)ccc3OC2)cc1 | > 100 | > 100 | > 100 | > 100 | > 100 | > 100 | > 100 | > 100 | > 100 | > 100
17 | Cc1nc(C)c(N2CCNCC2)c(=O)[nH]1 | > 100 | > 100 | > 100 | > 100 | > 100 | > 100 | > 100 | > 100 | > 100 | > 100
18 | O=c1oc2ccccc2cc1-c1cn2c(n1)sc1ccccc12 | > 100 | > 100 | > 100 | 11.8 | > 100 | > 100 | > 100 | > 100 | > 100 | > 100
19 | NC1=NS(=O)(=O)Nc2nc(-c3ccccc3)[nH]c21 | > 100 | > 100 | > 100 | > 100 | > 100 | > 100 | > 100 | > 100 | > 100 | > 100
20 | COc1ccc2c3c([nH]c2c1)CCN(CCCC(=O)c1ccc(F)cc1)C3 | 27.1 | 25.5 | 25 | 18.3 | 32.7 | 34.4 | 36.2 | 29.3 | 26 | 36.6
21 | CC(C)=CCc1[nH]c2ccccc2c1C1=C(O)C(=O)C(c2c(CC=C(C)C)[nH]c3ccccc23)=C(O)C1=O | 10.2 | 3.07 | 3.78 | 6.34 | 3.45 | 2.82 | 15.4 | 2.9 | 4.12 | 4.44
